This is an account of results in patent US12319752B2, “Heparin-binding cationic peptide self-assembling peptide amphiphiles useful against drug-resistant bacteria” (priority 2016, dated 2025).

SMILES strings stand for the structures. Residues, ends and D or L forms follow the SMILES beside them. *: point of attachment. Palmitoyl = CCCCCCCCCCCCCCCC(=O)*

A short description of series [1]: Critical micelle concentration (CMC) by Nile Red fluorescence. It counts as physicochemical. To be noted: in water, Nile Red dye. An excerpt:
First, the solvatochromic probe Nile Red was used to examine the threshold concentrations for the spontaneous aggregation induced by hydrophobic collapse of peptides. Once the supramolecular structures of PA self-assemble in water at their CMC, the Nile Red dye can be solubilized in the hydrophobic cores of the PA assemblies, displaying an enhanced fluorescent intensity. Consequently, the fluorescent intensity maxima of Nile Red were at the emission wavelength of 630 nm in the solutions of CVK-PA and ACA-PA, whereas the emission wavelength was located at 660 nm in the Bi-Cardin peptide solutions (FIG. 4A-4D). […] To estimate the CMC of each peptide, the corrected fluorescent intensity (If,corrected) of Nile Red at its emission wavelength for each peptide solution was calculated using equation: If,corrected=If,sample−If,water, where If,sample is the average of the triplicate fluorescent intensity measurements in the sample and If,water is the fluorescent intensity of Nile Red in water without the peptide. The measurements of the corrected fluorescent intensity were plotted against the log 10 values of concentration of each peptide, then the CMC value was determined at the point of intersection of the plot of log peptide concentration and fluorescent intensity of Nile Red.

The subject of a further series is MDR E. coli. Nature of the series: Bacterial membrane disruption by TEM of ultrathin sections. It is filed as cell-based, multidrug-resistant E. coli (MDR E. coli). To be noted: 4 h. How it is done: TEM was used to reveal the damage in bacterial cell envelopes caused by ACA-PA treatment. Drug-resistant bacterial strains (MRSA and MDR E. coli) were exposed to ACA-PA at concentrations below (40 μM) and above (80 μM) the CMC, and ultrathin sections of the bacterial cultures were visualized by TEM.
The ACA-PA at a concentration lower than CMC seemed to only influenced the outer bacteria membrane, but were inadequate to disrupt the inner bacteria membranes.
Bacterial membrane disruption was observed from the ultrathin sectioned sample using TEM. […] After treatment with 80 μM ACA nanorods, bacterial cell membranes were severely damaged with complete cytoplasm leakage. […] On the damaged membranes, blisters appeared to originate from the pores. This explains the reason for the different antibacterial activity of ACA-PA on Gram-negative bacteria compared to the concentration-dependent toxicity on Gram-positive bacteria. The cell envelope of Gram-positive has a cytoplasmic membrane surrounded by a thick peptidoglycan layer with lipoteichoic acid. The antibacterial ACA-PA could penetrate the Gram-positive bacterial membrane by charge and hydrophobicity, although the PA were in a dispersed, non-assembled form. However, such dispersed PA were not able to penetrate the outer membrane of Gram-negative bacteria. […]

A short description of series [2]: Cytotoxicity, MTS cell viability assay. To be noted: human, human dermal fibroblasts (HDF, Detroit 551, ATCC CCL-110). It counts as cell-based, human. Here is the method: To evaluate the cytotoxicity of the peptides, human dermal fibroblasts (HDF) were treated for 24 h, and cell viability was determined via MTS assays (FIG. 13).
Human dermal fibroblast cells (HDF, Detroit 551, ATCC #CCL-110) were cultured in Dulbecco's modified Eagle medium (DMEM; Fisher, Pittsburgh, PA) supplemented with 10% fetal bovine serum (FBS) and 1% penicillin/streptomycin for 24 h. All cells were cultured to 90% confluence in a 37° C., humidified, 5% CO2/95% air environment. Cells at passage numbers of 4-7 were used in these experiments.
The MTS cell viability assay kit (Promega, Madison, WI, USA) was used to determine cytotoxicity of the peptides. First, HDF cells were seeded on a 96-well plate at a cell density of 5,000 cells/well (equal to 15,385 cells/cm^2), and were incubated overnight for cell adhesion. After overnight incubation, the cell medium in each well was replaced by 100 μL of cell culture medium containing various concentrations of peptides (20 μM to 100 μM). The control samples were cells incubated in cell culture medium only. After 24 h, the treatment medium in each well was removed. The cells were washed with phosphate buffered saline (PBS, pH=7.4, Fisher, PA, USA) and 100 μL of fresh cell culture medium was added to each well, followed by the addition of 20 μL of the MTS reagent. After the cells were incubated for 2.5 h, the absorbance was measured at a wavelength of 490 nm by a spectrophotometer (SpectraMax M3, Molecular Devices, Molecular Devices, Sunnyvale, CA, USA). To estimate the cell numbers in each well, a standard curve expressing the linear correlation between different cell densities and optical densities (R^2>0.95) was plotted, and the cell numbers were determined with this standard curve from the OD490 value recorded in each sample. The cell viability of each sample was calculated by: Cell viability=[(cell density per mL of treated sample)/(cell density per mL of control sample)]×100%. Data were expressed by standard error of the mean (±S.E.M.) and N=3, *p<0.05 compared with control samples.
(In general: Formazan colour is commonly taken as a measure of viable cells.)

`CCCCCCCCCCCCCCCC(=O)N[C@H](C(=O)N[C@H](C(=O)N[C@H](C(=O)N[C@H](C(=O)N[C@@H](CCCCN)C(=O)N[C@@H](CCCCN)C(=O)N[C@@H](CCCCN)C(=O)N[C@@H](CCCCN)C(=O)NCC(=O)N[C@@H](C)C(=O)N[C@@H](CCCCN)C(=O)N[C@@H](CCCCN)C(=O)N[C@@H](C)C(=O)N[C@@H](CCCNC(=N)N)C(=O)N[C@@H](C)C(=O)N[C@@H](C)C(=O)N[C@@H](CCCCN)C(=O)N[C@@H](CCCCN)C(=O)N[C@@H](C)C(=O)N[C@@H](CCCNC(=N)N)C(=O)N[C@@H](C)C(=O)O)C(C)C)C(C)C)C(C)C)C(C)C` [ACA-PA, C16-V4K4G(AKKARA)2 (SEQ ID NO: 7)] (Palmitoyl-VVVVKKKKGAKKARAAKKARA-OH; N-terminus and C-terminus assumed) came in with a CMC in series [1] of 45.7 µM. The “bacterial membrane disruption (TEM)” value was “blisters only on the outer cell walls” in the series with MDR E. coli (40 μM); “disrupted bacteria envelopes with loosened and disconnected membranous structures” in the series with MDR E. coli (80 μM). The viability – broadly, the share of living cells, or the viability signal relative to a control – at 24 h, 100 µM in series [2] is greater than 50%.
